Source: article PMC6720452, “Structural Basis for Recruitment of DAPK1 to the KLHL20 E3 Ligase” (Structure(London, England:1993), 2019)

Assays:
Kelch domain of KEAP1 = conditions: ref Tong et al., 2006; cited from earlier work
Excerpt: However, this is weaker than the low nanomolar binding observed for NRF2 interaction with the Kelch domain of KEAP1 ([Tong et al., 2006]). These differences may reflect the strict regulation of NRF2, which ensures its constitutive degradation, or the requirement for substrate co-adaptors as found for KLHL12 ([McGourty et al., 2016]). Alternatively, t ...

Kelch domain of KLHL20 = biological target: T1, Kelch domain of KLHL20 (Homo sapiens, UniProt Q9Y2M5); assay: Surface plasmon resonance, immobilized KLHL20; conditions: SPR, BIACORE S200, CM5 chip, amine coupling, 25°C, HBS-P buffer, 30 μL/min, peptide 1.6-200 μM, one-site steady-state affinity; representative of two independent experiments; N.B., no binding detected
T1 construct: human KLHL20 (Uniprot Q9Y2M5 isoform 1, M303-E605); hexahistidine tag with TEV cleavage site (N); made in house; host or cells: E. coli BL21(DE3)R3-pRARE2
T1 sequence (Q9Y2M5 303-605): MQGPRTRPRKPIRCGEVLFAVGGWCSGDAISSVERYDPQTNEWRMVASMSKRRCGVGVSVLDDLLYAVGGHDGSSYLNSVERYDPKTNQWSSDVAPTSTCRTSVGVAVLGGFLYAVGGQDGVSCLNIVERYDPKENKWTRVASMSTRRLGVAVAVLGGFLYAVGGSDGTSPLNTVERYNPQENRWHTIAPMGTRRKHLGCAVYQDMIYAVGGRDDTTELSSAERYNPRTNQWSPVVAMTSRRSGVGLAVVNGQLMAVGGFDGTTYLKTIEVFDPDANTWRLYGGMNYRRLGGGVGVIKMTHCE
Method: (C) For SPR experiments, KLHL20 and KLHL3 Kelch domains were immobilized by amine coupling on different flow cells of a CM5 sensor chip. Indicated DAPK1 peptides were injected subsequently at concentrations of 1.6 μM, 3.1 μM, 6.2 μM, 12.5 μM, 25 μM, 50 μM, 100 μM, and 200 μM. Binding was monitored at a flow rate of 30 μL/min. […] Data were fitted using a steady-state affinity equation.
Assays were performed at 25°C using a BIACORE S200 (GE Healthcare) surface plasmon resonance (SPR) instrument. The Kelch domains of KLHL20 and KLHL3 were immobilized on sensor chip CM5 (GE Healthcare) using amine coupling. […] Binding was monitored using a flow rate of 30 μL/min. The peptide analytes were prepared in HBS-P buffer (GE Healthcare). Data reported were after reference flow cell signal subtraction. Data were analyzed by one-site steady-state affinity analysis using the Biacore S200 Evaluation software and the fitting equation Req=CRmax/KD+C+RI . (RI, bulk refractive index contribution; Rmax, maximum response; KD, dissociation constant; C, analyte concentration).

Substance | Binding affinity for KEAP1 Kelch domain (Kelch domain of KEAP1) | KD (μM), Immobilized Protein: KLHL20 (Kelch domain of KLHL20)
NRF2: NRF2, interaction with the Kelch domain of KEAP1 | low nanomolar | –
SKLRELGRRDAADFLLKA [DAPK1 peptide spanning the C-terminal site residues 1,378–1,395] | – | N.B
